{
  "source": "paper PMC10451034",
  "about": "“Highly Efficient Photosensitizers with Molecular Vibrational Torsion for Cancer Photodynamic Therapy” (ACS Central Science, 2023)",
  "key": {"[1]": {"assay": "Singlet oxygen yield in PBS with singlet oxygen sensor green (SOSG)", "format": "physicochemical", "details": "660 nm irradiation", "experimental": "In order to further investigate the PDT ability of QTCy7-R on cancer cells, the UV–vis absorption and emission spectra and ^1O2 production capacity of QTCy7-R were tested in phosphate-buffered solution (PBS) to better mimic the cellular environment. […] Meanwhile, the fluorescence quenching of QTCy7-Ph and QTCy7-CHO also confirmed their aggregation in aqueous solution compared to the intense fluorescence emission of QTCy7-Ac. Furthermore, singlet oxygen sensor green (SOSG) was selected to investigate the ^1O2 quantum yield in PBS.\n(§1) QTCy7-Ph, (e) QTCy7-Ac, (f) QTCy7-CHO, (g) TCy7 and (h) MB under 660 nm irradiation (4 mW/cm2) in PBS. (i) The relative singlet oxygen yield of different compounds in PBS.\n(§2) Figure S19. (a) The cellular uptake of QTCy7-R in HepG2 cells (QTCy7-Me/QTCy7-Ph: λex = 640 […]\n(§3) μm). (b) The fluorescence intensity of QTCy7-R in cell at different time. (c) The LDH release rate of cells under different treatment conditions.\n(§4) Figure S20. The enlarged images of (a) QTCy7-Ac and (b) QTCy7-CHO caused cell membrane destruction at 0 min and 4 min. Yellow arrows indicate the formation of distinct bubble-like structures on cell membrane. (λex = 640 nm, λem = 650-750 nm, scale bars: 20 μm). […]"}, "[2]": {"system": "4T1 subcutaneous solid tumor", "assay": "Tumor suppression (PDT) in 4T1-subcutaneous tumor model", "format": "in vivo, BALB/c mice", "details": "for tumor volume increase: no irradiation", "experimental": "In view of the observation that the fluorescence intensity of QTCy7-Ac in the tumor site peaked around 2–2.5 h after intravenous injection, this period was chosen as the PDT time window. […] Even so, this approach achieved partial tumor suppression; the tumor volume was 1-fold compared with the initial situation. […] After PDT treatment, the tumor kept shrinking in size (Figure S22a), which achieved a tumor suppression rate of nearly 95% (Figure S22b). Nevertheless, the tumors in PBS groups increased quickly with a 6-fold increment compared with the initial volume whether exposed to irradiation or not, which ruled out the influence of light on tumor growth. In addition, there was virtually no difference between the intratumoral and intravenous injection groups treated with QTCy7-Ac, with tumor volumes increasing by 6-fold and 7-fold, respectively, which excluded the cytotoxicity of the dye alone. […]\nof major organs, the mice L) was intravenously injected with QTCy7-Ac (200 μM, 100 μL) 2 hours in advance were killed and the main organs and tumors were removed for […]\nTumor suppression experiments of 4T1-subcutaneous tumor model\nTo confirm the in vivo PDT efficacy of QTCy7-Ac, all the BALB/c mice were divided into 6 groups: 1) saline injection; 2) saline injection with 660 nm irradiation (100 mW/cm2, 15 min); 3) QTCy7-Ac (200 μM, 100 μL) intratumoral injection; 4) QTCy7-Ac (200 μM, 100 μL) intratumoral injection with 660 nm irradiation (100 mW/cm2, 15 min); 5) QTCy7-Ac (200 μM, 100 μL) intravenous injection; 6) QTCy7-Ac (200 μM, 100 μL) intravenous injection with 660 nm irradiation (100 mW/cm2, 15 min); When the volume of subcutaneous tumors reached about 100 mm 3, mice were injected with PBS or QTCy7-Ac, respectively. After 2 h post-injection, tumor region was irradiated with […] light. In the following half month, the tumor volume of all the mice was measured every two days by a vernier caliper. The volume of tumors was calculated by the following formula: […]\nWhere “V” represent the tumor volume, “a” represent greatest longitudinal diameter (length) and “b” represent the greatest transverse diameter (width).\nThe in vivo biocompatibility was evaluated by using measurement mice body weight and H&E slice histological analysis. After the PDT treatment, the mice were euthanized, and main organs including heart, liver, spleen, lung, kidneys and tumors were harvested for histological analysis by means of hematoxylin-eosin (H&E) staining.\nData were expressed as mean ± standard deviation. Student's t test was used to evaluate the statistical significance. P values < 0.05 were regarded statistically"}, "HepG2 cells": {"system": "HepG2 cells", "assay": "Lactate dehydrogenase (LDH) release into cell culture medium", "format": "cell-based, human", "details": "under irradiation", "experimental": "Next, in order to verify the disruption effect on cell structural integrity of the ^1O2 generation by QTCy7-R under irradiation, JC-1 staining imaging was conducted to monitor the mitochondria membrane potential. […] On the other hand, cell membrane damage caused by the photooxidation of QTCy7-Ac and QTCy7-CHO could be confirmed by a visualized observation. […] Furthermore, the lactate dehydrogenase (LDH) content in cell culture medium was measured to characterize the extent of cell membrane damage.[49]\nas §1, §2, §3, §4"}},
  "data": [
    {"smiles": "CCOC(=O)C1=C/C(=C\\C=C2/Sc3ccccc3N2CC)C(=O)C(/C=C/c2sc3ccccc3[n+]2CC)=C1", "note": "[QTCy7-Ac]", "values": [
      {"measurement": "1O2 quantum yield relative to MB", "setting": "[1]", "result": 5.8, "unit": "times"},
      {"measurement": "H&E staining of tumor tissue", "setting": "[2]; QTCy7-Ac-mediated PDT", "result": "Conspicuous morphological damage"},
      {"measurement": "tumor volume compared with initial", "setting": "[2]; intratumoral injection + 660 nm, 100 mW/cm^2, 15 min", "result": 1, "unit": "fold"},
      {"measurement": "tumor volume increase", "setting": "[2]; intratumoral injection", "result": 6, "unit": "fold"},
      {"measurement": "tumor suppression rate", "setting": "[2]; intravenous injection + 660 nm, 100 mW/cm^2, 15 min", "result": "~95", "unit": "%"},
      {"measurement": "tumor volume increase", "setting": "[2]; intravenous injection", "result": 7, "unit": "fold"},
      {"measurement": "LDH release rate", "setting": "HepG2 cells", "result": "about 70%"}
    ]}
  ]
}
